In BigSolDB 2.1:

CCOC(=O)C1=C(C)NC(C)=C(C(=O)OCC)C1
Conditions	solubility (mole fraction)
in 2-butanone, 272.15 K	0.00182
in 2-butanone, 278.15 K	0.00274
in 2-butanone, 283.15 K	0.00382
in 2-butanone, 288.15 K	0.00525
in 2-butanone, 293.15 K	0.00717
in 2-butanone, 298.15 K	0.00965
in 2-butanone, 303.35 K	0.013
in 2-butanone, 308.25 K	0.0171
in 2-butanone, 313.15 K	0.0222
in 2-butanone, 318.15 K	0.0288
in 2-butanone, 323.65 K	0.038
in 2-pentanone, 272.15 K	0.00169
in 2-pentanone, 278.15 K	0.00255
in 2-pentanone, 283.15 K	0.00353
in 2-pentanone, 288.15 K	0.00485
in 2-pentanone, 293.15 K	0.00657
in 2-pentanone, 298.15 K	0.00881
in 2-pentanone, 303.35 K	0.0119
in 2-pentanone, 308.25 K	0.0155
in 2-pentanone, 313.15 K	0.0202
in 2-pentanone, 318.15 K	0.026
in 2-pentanone, 323.65 K	0.0345
in acetone, 272.15 K	0.00112
in acetone, 278.15 K	0.00165
in acetone, 283.15 K	0.00225
in acetone, 288.15 K	0.00304
in acetone, 293.15 K	0.00407
in acetone, 298.15 K	0.0054
in acetone, 303.35 K	0.00718
in acetone, 308.25 K	0.00926
in acetone, 313.15 K	0.0119
in acetone, 318.15 K	0.0152
in acetone, 323.65 K	0.02
in acetonitrile, 272.15 K	0.000235
in acetonitrile, 278.15 K	0.000356
in acetonitrile, 283.15 K	0.000495
in acetonitrile, 288.15 K	0.000687
in acetonitrile, 293.15 K	0.000931
in acetonitrile, 298.15 K	0.00126
in acetonitrile, 303.35 K	0.0017
in acetonitrile, 308.25 K	0.00224
in acetonitrile, 313.15 K	0.00291
in acetonitrile, 318.15 K	0.0038
in acetonitrile, 323.65 K	0.00503
in ethanol, 272.15 K	0.000414
in ethanol, 277.95 K	0.000587
in ethanol, 283.15 K	0.000795
in ethanol, 288.15 K	0.00105
in ethanol, 293.05 K	0.00137
in ethanol, 298.15 K	0.00179
in ethanol, 303.15 K	0.00232
in ethanol, 308.05 K	0.00294
in ethanol, 312.35 K	0.00362
in ethanol, 318.15 K	0.00472
in ethanol, 323.15 K	0.0059
in ethyl acetate, 272.15 K	0.00135
in ethyl acetate, 278.15 K	0.00195
in ethyl acetate, 283.15 K	0.00261
in ethyl acetate, 288.15 K	0.00345
in ethyl acetate, 293.15 K	0.00453
in ethyl acetate, 298.15 K	0.00588
in ethyl acetate, 303.35 K	0.00767
in ethyl acetate, 308.25 K	0.00977
in ethyl acetate, 313.15 K	0.0123
in ethyl acetate, 318.15 K	0.0155
in ethyl acetate, 323.65 K	0.0198
in ethyl formate, 272.15 K	0.00082
in ethyl formate, 278.15 K	0.00117
in ethyl formate, 283.15 K	0.00155
in ethyl formate, 288.15 K	0.00204
in ethyl formate, 293.15 K	0.00266
in ethyl formate, 298.15 K	0.00343
in ethyl formate, 303.35 K	0.00444
in ethyl formate, 308.25 K	0.00562
in ethyl formate, 313.15 K	0.00703
in ethyl formate, 318.15 K	0.00881
in ethyl formate, 323.65 K	0.0112
in isobutanol, 272.15 K	0.000707
in isobutanol, 277.95 K	0.00106
in isobutanol, 283.15 K	0.00151
in isobutanol, 288.15 K	0.00209
in isobutanol, 293.05 K	0.00283
in isobutanol, 298.15 K	0.00386
in isobutanol, 303.15 K	0.00517
in isobutanol, 308.05 K	0.00684
in isobutanol, 312.35 K	0.00863
in isobutanol, 318.15 K	0.0117
in isobutanol, 323.15 K	0.0152
in isopentanol, 272.15 K	0.000677
in isopentanol, 277.95 K	0.000996
in isopentanol, 283.15 K	0.00139
in isopentanol, 288.15 K	0.00189
in isopentanol, 293.05 K	0.00254
in isopentanol, 298.15 K	0.00341
in isopentanol, 303.15 K	0.0045
in isopentanol, 308.05 K	0.00587
in isopentanol, 312.35 K	0.00738
in isopentanol, 318.15 K	0.00989
in isopentanol, 323.15 K	0.0126
in isopropanol, 272.15 K	0.000462
in isopropanol, 277.95 K	0.00066
in isopropanol, 283.15 K	0.000904
in isopropanol, 288.15 K	0.0012
in isopropanol, 293.05 K	0.00158
in isopropanol, 298.15 K	0.00208
in isopropanol, 303.15 K	0.00269
in isopropanol, 308.05 K	0.00344
in isopropanol, 312.35 K	0.00424
in isopropanol, 318.15 K	0.00557
in isopropanol, 323.15 K	0.00702
in methanol, 272.15 K	0.000246
in methanol, 277.95 K	0.000355
in methanol, 283.15 K	0.000486
in methanol, 288.15 K	0.000655
in methanol, 293.05 K	0.000865
in methanol, 298.15 K	0.00114
in methanol, 303.15 K	0.0015
in methanol, 308.05 K	0.00192
in methanol, 312.35 K	0.00238
in methanol, 318.15 K	0.00315
in methanol, 323.15 K	0.004
in methyl acetate, 272.15 K	0.00103
in methyl acetate, 278.15 K	0.00146
in methyl acetate, 283.15 K	0.00192
in methyl acetate, 288.15 K	0.00251
in methyl acetate, 293.15 K	0.00326
in methyl acetate, 298.15 K	0.0042
in methyl acetate, 303.35 K	0.00541
in methyl acetate, 308.25 K	0.00679
in methyl acetate, 313.15 K	0.00848
in methyl acetate, 318.15 K	0.0106
in methyl acetate, 323.65 K	0.0134
in n-butanol, 272.15 K	0.000605
in n-butanol, 277.95 K	0.000859
in n-butanol, 283.15 K	0.00116
in n-butanol, 288.15 K	0.00154
in n-butanol, 293.05 K	0.00201
in n-butanol, 298.15 K	0.00262
in n-butanol, 303.15 K	0.00338
in n-butanol, 308.05 K	0.0043
in n-butanol, 312.35 K	0.00528
in n-butanol, 318.15 K	0.00691
in n-butanol, 323.15 K	0.00862
in n-pentanol, 272.15 K	0.000647
in n-pentanol, 277.95 K	0.000925
in n-pentanol, 283.15 K	0.00126
in n-pentanol, 288.15 K	0.00169
in n-pentanol, 293.05 K	0.00221
in n-pentanol, 298.15 K	0.00292
in n-pentanol, 303.15 K	0.00378
in n-pentanol, 308.05 K	0.00483
in n-pentanol, 312.35 K	0.00597
in n-pentanol, 318.15 K	0.00787
in n-pentanol, 323.15 K	0.00988
in n-propanol, 272.15 K	0.000513
in n-propanol, 277.95 K	0.000735
in n-propanol, 283.15 K	0.000998
in n-propanol, 288.15 K	0.00133
in n-propanol, 293.05 K	0.00174
in n-propanol, 298.15 K	0.00229
in n-propanol, 303.15 K	0.00296
in n-propanol, 308.05 K	0.0038
in n-propanol, 312.35 K	0.00468
in n-propanol, 318.15 K	0.00613
in n-propanol, 323.15 K	0.00773
in toluene, 272.15 K	0.00015
in toluene, 278.15 K	0.00023
in toluene, 283.15 K	0.000323
in toluene, 288.15 K	0.000449
in toluene, 293.15 K	0.000618
in toluene, 298.15 K	0.000839
in toluene, 303.35 K	0.00114
in toluene, 308.25 K	0.00151
in toluene, 313.15 K	0.00198
in toluene, 318.15 K	0.0026
in toluene, 323.65 K	0.00346
